Data as given in ChEMBL document CHEMBL3137381, “MMV Box Onchocerca lienalis screening set”.

Assays:
Format in all cases: functional
Onchocerca lienalis [1] = assay: MMV: Percent motility assay at a compound concentration of 1.25e-5 M. Activity score legend: 3: Active, 2: Moderately active; 1: Inactive, 0: Toxic; conditions: at 12.5 µM
Onchocerca lienalis [2] = assay: MMV: Percent motility assay at a compound concentration of 3.1e-6 M. Activity score legend: 3: Active, 2: Moderately active; 1: Inactive, 0: Toxic; conditions: at 3.1 µM
Onchocerca lienalis [3] = assay: MMV: Percent motility assay at a compound concentration of 1.9e-7 M. Activity score legend: 3: Active, 2: Moderately active; 1: Inactive, 0: Toxic; conditions: at 0.19 µM
Onchocerca lienalis [4] = assay: MMV: Percent motility assay at a compound concentration of 7.8e-7 M. Activity score legend: 3: Active, 2: Moderately active; 1: Inactive, 0: Toxic; conditions: at 0.78 µM

Measured: Motility

COc1ccc(Nc2nc(N/N=C/c3ccc(O)cc3)nc(Nc3ccc([N+](=O)[O-])cc3)n2)cc1
100%: all assays above

Cc1sc(NC(=O)c2ccco2)c(C(c2cccnc2)N2CCC(Cc3ccccc3)CC2)c1C (stereo not given)
100%: all assays above

O=C(NNc1cc(N2CCCC2)nc(N2CCCC2)n1)c1ccccc1
100%: all assays above

COC(=O)c1ccc(Cl)c2c1C1C=CCC1C(c1cccc3ccccc13)N2 (stereo not given)
100%: all assays above

O=C(CCc1ccccc1)c1ccccc1OCC(O)CN1CCCCC1 (stereo not given)
100%: all assays above

OC1=C2C(=Nc3ccccc3SC2c2ccccc2)c2ccccc21 (stereo not given)
100%: all assays above

COc1cc(C(=O)Nc2ccc(-c3nc4ccccc4[nH]3)cc2)cc(OC)c1OC
100%: all assays above

COC(=O)c1ccc(C2C3=C(O)CC(c4ccc(F)cc4)CC3=Nc3ccccc3N2C(=O)c2ccccc2)cc1 (stereo not given)
100%: all assays above

CCOc1ccc(CN2CCN(CC(O)COc3ccc(OCC(O)CN4CCN(Cc5ccc(OCC)cc5)CC4)cc3)CC2)cc1 (stereo not given)
100%: all assays above

CCCCNc1nc(NC(C)(C)C)nc(NC(C)(C)C)n1
100%: all assays above

CC(=O)c1sc(NC(=O)Nc2ccc(C)cc2C)nc1C
100%: all assays above

Cn1c(C(=O)c2cccc3ccccc23)nc2ccccc21
100%: all assays above

Oc1ccc2ccccc2c1CNc1nc2ccccc2[nH]1
100%: all assays above

O=C(Nc1ccc(-c2nc3ccccc3[nH]2)cc1)c1ccc(Cl)c(Cl)c1
100%: all assays above

OCCNc1nc(Nc2ccc(Cl)c(Cl)c2)nc2ccccc12
100%: Onchocerca lienalis [3] | Onchocerca lienalis [4]
20%: Onchocerca lienalis [1]
33.33%: Onchocerca lienalis [2]

Nc1ccc(-c2nc3cc(Oc4ccc(Oc5ccc6[nH]c(-c7ccc(N)cc7)nc6c5)cc4)ccc3[nH]2)cc1
100%: all assays above

Cc1cc(N(C)C)nc(Nc2ccc(NC(=O)Nc3ccccc3)cc2)n1
100%: all assays above

COc1cc(C(=O)ON=C(N)Cc2cccc3ccccc23)cc(OC)c1OC
100%: all assays above

Oc1c(C(Nc2ccccn2)c2cccc(Oc3ccccc3)c2)ccc2cccnc12 (stereo not given)
6.66%: Onchocerca lienalis [1]
100%: all other assays above

COc1cc(-c2nc(-c3ccccc3)c(-c3ccccc3)[nH]2)cc(OC)c1O
100%: all assays above

Cc1ccc(Nc2nc(N)c3ccccc3n2)cc1Cl
100%: all assays above

CCc1ccc(CNCC(O)c2ccccc2)cc1.Cl (stereo not given)
100%: all assays above

Br.CCn1c2c(c(=N)c3c1CCC3)CCCC2
100%: all assays above

Cc1ccc2c(C)nc(Nc3nc(C)cc(-c4ccccc4)n3)nc2c1
100%: all assays above

CCOc1ccc(Nc2ccnc3cc(Cl)ccc23)cc1
100%: all assays above

Br.Cc1ccc(C)c(-c2csc(Nc3ccc(C)c(C)c3)n2)c1
100%: all assays above

CCCn1c(=N)c(C(=O)NC2CCCCC2)cc2c(=O)n3cccc(C)c3nc21
100%: all assays above

Nc1ccn([C@@H]2O[C@H](CO)[C@@H](O)[C@H]2O)c(=O)n1 [CYTIDINE]
100%: all assays above

O=C(Nc1cccc(C2=NCCN2)c1)Nc1cccc(C2=NCCN2)c1 [IMIDOCARB]
100%: all assays above

CN(C)c1ccc(C(O)(c2ccc(N(C)C)cc2)c2ccc(N(C)C)cc2)cc1 [METHYLROSANILINE]
66.66%: Onchocerca lienalis [4]
100%: all other assays above
